What was measured:
barnyardgrass [1] = assay: Test A preemergence; assay type: in vivo, Echinochloa crus-galli; conditions: preemergence; for Barnyardgrass plant response rating (0 to 100 scale, 0 is no effect, 100 is complete control): 125 g ai/ha, visual injury approx. 10 days after treatment; for Barnyardgrass plant response rating: 500 g ai/ha, visual injury after approx. 10 days, 0 to 100 scale (0 no effect, 100 complete control)
Outline: (§1)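 Seeds were sown in a loam soil–sand blend and given a directed soil spray preemergence; postemergence plants at 2–10 cm, one- to two-leaf stage, were sprayed with compound in non-phytotoxic solvent with surfactant. After about 10 days in a greenhouse, injury was visually rated against untreated controls (0 = no effect, 100 = complete control).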

crabgrass, large [2] = assay: Test A preemergence; assay type: in vivo, Digitaria sanguinalis; conditions: preemergence; for Crabgrass, Large plant response rating (0 to 100 scale): 125 g ai/ha, visual injury approx. 10 days after treatment; for Crabgrass, Large plant response rating: 500 g ai/ha, visual injury after approx. 10 days, 0 to 100 scale (0 no effect, 100 complete control)
Outline: as §1

foxtail, giant [3] = assay: Test A preemergence; assay type: in vivo, Setaria faberii; conditions: preemergence; for Foxtail, Giant plant response rating (0 to 100 scale): 125 g ai/ha, visual injury approx. 10 days after treatment; for Foxtail, Giant plant response rating: 500 g ai/ha, visual injury after approx. 10 days, 0 to 100 scale (0 no effect, 100 complete control)
Outline: as §1

morningglory [4] = assay: Test A preemergence; assay type: in vivo, Ipomoea spp.; conditions: preemergence; for Morningglory plant response rating (0 to 100 scale): 125 g ai/ha, visual injury approx. 10 days after treatment; for Morningglory plant response rating: 500 g ai/ha, visual injury after approx. 10 days, 0 to 100 scale (0 no effect, 100 complete control)
Outline: as §1

pigweed [5] = assay: Test A preemergence; assay type: in vivo, Amaranthus retroflexus; conditions: preemergence; for Pigweed plant response rating (0 to 100 scale): 125 g ai/ha, visual injury approx. 10 days after treatment; for Pigweed plant response rating: 500 g ai/ha, visual injury after approx. 10 days, 0 to 100 scale (0 no effect, 100 complete control)
Outline: as §1

velvetleaf [6] = assay: Test A preemergence; assay type: in vivo, Abutilon theophrasti; conditions: preemergence; for Velvetleaf plant response rating (0 to 100 scale): 125 g ai/ha, visual injury approx. 10 days after treatment; for Velvetleaf plant response rating: 500 g ai/ha, visual injury after approx. 10 days, 0 to 100 scale (0 no effect, 100 complete control)
Outline: as §1

wheat [7] = assay: Test A preemergence; assay type: in vivo, Triticum aestivum; conditions: preemergence; for Wheat plant response rating (0 to 100 scale): 125 g ai/ha, visual injury approx. 10 days after treatment; for Wheat plant response rating: 500 g ai/ha, visual injury after approx. 10 days, 0 to 100 scale (0 no effect, 100 complete control)
Outline: as §1

corn [8] = assay: Test A preemergence; assay type: in vivo, Zea mays; conditions: preemergence; for Corn plant response rating (0 to 100 scale): 125 g ai/ha, visual injury approx. 10 days after treatment; for Corn plant response rating: 500 g ai/ha, visual injury after approx. 10 days, 0 to 100 scale (0 no effect, 100 complete control)
Outline: as §1

barnyardgrass [9] = assay: Test A postemergence; assay type: in vivo, Echinochloa crus-galli
Outline: as §1

crabgrass, large [10] = assay: Test A postemergence; assay type: in vivo, Digitaria sanguinalis
Outline: as §1

foxtail, giant [11] = assay: Test A postemergence; assay type: in vivo, Setaria faberii
Outline: as §1

morningglory [12] = assay: Test A postemergence; assay type: in vivo, Ipomoea spp.; conditions: Postemergence
Outline: as §1

pigweed [13] = assay: Test A postemergence; assay type: in vivo, Amaranthus retroflexus; conditions: Postemergence
Outline: as §1

velvetleaf [14] = assay: Test A postemergence; assay type: in vivo, Abutilon theophrasti; conditions: Postemergence
Outline: as §1

wheat [15] = assay: Test A postemergence; assay type: in vivo, Triticum aestivum; conditions: Postemergence
Outline: as §1

corn [16] = assay: Test A postemergence; assay type: in vivo, Zea mays
Outline: as §1

rice = assay: Test B flood; assay type: in vivo, Oryza sativa; conditions: 250 g ai/ha, visual rating on 0 to 100 scale (0 no effect, 100 complete control), 13 to 15 days
Outline: (§2)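 Plants were grown to the 2-leaf stage and pots flooded to 3 cm above soil. Compounds were applied directly into the paddy water, with depth kept for the test. After 13–15 days in greenhouse, response was rated visually against controls on a 0 (no effect) to 100 (complete control) scale.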

sedge, umbrella = assay: Test B flood; assay type: in vivo, Cyperus difformis; conditions: 250 g ai/ha, visual rating on 0 to 100 scale (0 no effect, 100 complete control), 13 to 15 days
Outline: as §2

ducksalad = assay: Test B flood; assay type: in vivo, Heteranthera limosa; conditions: 250 g ai/ha, visual rating on 0 to 100 scale (0 no effect, 100 complete control), 13 to 15 days
Outline: as §2

barnyardgrass [17] = assay: Test B flood; assay type: in vivo, Echinochloa crus-galli; conditions: 250 g ai/ha, visual rating on 0 to 100 scale (0 no effect, 100 complete control), 13 to 15 days
Outline: as §2

[18] = Postemergence, 500 g ai/ha, 0 to 100 scale (0 no effect, 100 complete control)
[19] = postemergence, 125 g ai/ha, about 10 days, visual rating on 0 to 100 scale (0 no effect, 100 complete control)
[20] = 125 g ai/ha, 0 to 100 scale, 0 no effect, 100 complete control
[21] = 500 g ai/ha, 0 to 100 scale (0 no effect, 100 complete control)
[22] = Postemergence, 125 g ai/ha, 0 to 100 scale, 0 no effect, 100 complete control

Compound | Barnyardgrass plant response rating (0 to 100 scale, 0 is no effect, 100 is complete control) (barnyardgrass [1]) | Barnyardgrass plant response rating (barnyardgrass [1]) | Crabgrass, Large plant response rating (0 to 100 scale) (crabgrass, large [2]) | Crabgrass, Large plant response rating (crabgrass, large [2]) | Foxtail, Giant plant response rating (0 to 100 scale) (foxtail, giant [3]) | Foxtail, Giant plant response rating (foxtail, giant [3]) | Morningglory plant response rating (0 to 100 scale) (morningglory [4]) | Pigweed plant response rating (0 to 100 scale) (pigweed [5]) | Velvetleaf plant response rating (0 to 100 scale) (velvetleaf [6]) | Wheat plant response rating (0 to 100 scale) (wheat [7]) | Corn plant response rating (0 to 100 scale) (corn [8]) | Corn plant response rating (corn [8]) | Barnyardgrass plant response rating (barnyardgrass [9]; [18]) | Crabgrass, Large plant response rating (crabgrass, large [10]; [18]) | Foxtail, Giant plant response rating (foxtail, giant [11]; [18]) | Morningglory plant response rating (morningglory [12]; [20]) | Morningglory plant response rating (morningglory [12]; [21]) | Pigweed plant response rating (pigweed [13]; [20]) | Pigweed plant response rating (pigweed [13]; [21]) | Velvetleaf plant response rating (velvetleaf [14]; [20]) | other results
CCCNC(=O)c1cc(I)n(Cc2cccc(C(F)(F)F)c2)n1 [Compound 183] | 0 | 10 | 10 | 80 | 10 | 50 | 0 | 10 | 0 | 0 | 0 | 0 | 20 | 20 | 20 | 10 | 90 | 90 | 80 | 10 | Morningglory plant response rating (morningglory [4]): 0; Pigweed plant response rating (pigweed [5]): 50; Velvetleaf plant response rating (velvetleaf [6]): 0; Wheat plant response rating (wheat [7]): 0; Barnyardgrass plant response rating (barnyardgrass [9]; [19]): 10; Crabgrass, Large plant response rating (crabgrass, large [10]; [19]): 10; Foxtail, Giant plant response rating (foxtail, giant [11]; [19]): 10; Velvetleaf plant response rating (velvetleaf [14]; [21]): 40; Wheat plant response rating (wheat [15]; [20]): 0; Wheat plant response rating (wheat [15]; [21]): 0; Corn plant response rating (corn [16]; [18]): 10; Corn plant response rating (corn [16]; [19]): 0; Plant response rating, Rice (rice): 0; Plant response rating, Sedge, Umbrella (sedge, umbrella): 0; Plant response rating, Ducksalad (ducksalad): 0; Plant response rating, Barnyardgrass (barnyardgrass [17]): 0
CCCCc1cc(C(=O)NCCC)nn1Cc1ccnc(C(F)(F)F)c1 [Compound 190] | 0 | 60 | 80 | 100 | 20 | 90 | 0 | 100 | 0 | 0 | 0 | 0 | 60 | 70 | 60 | 100 | 90 | 100 | 90 | 100 | Morningglory plant response rating (morningglory [4]): 30; Pigweed plant response rating (pigweed [5]): 100; Velvetleaf plant response rating (velvetleaf [6]): 20; Wheat plant response rating (wheat [7]): 0; Barnyardgrass plant response rating (barnyardgrass [9]; [19]): 10; Crabgrass, Large plant response rating (crabgrass, large [10]; [19]): 20; Foxtail, Giant plant response rating (foxtail, giant [11]; [19]): 20; Velvetleaf plant response rating (velvetleaf [14]; [21]): 80; Wheat plant response rating (wheat [15]; [20]): 80; Wheat plant response rating (wheat [15]; [21]): 10; Corn plant response rating (corn [16]; [18]): 40; Corn plant response rating (corn [16]; [19]): 10; Plant response rating, Rice (rice): 0; Plant response rating, Sedge, Umbrella (sedge, umbrella): 45; Plant response rating, Ducksalad (ducksalad): 0; Plant response rating, Barnyardgrass (barnyardgrass [17]): 0
CCCNC(=O)c1cc(C)n(Cc2ccnc(C(F)(F)F)c2)n1 [Compound 191] | 20 | 100 | 100 | 100 | 100 | 100 | 90 | 100 | 10 | 0 | 10 | 60 | 100 | 90 | 90 | 90 | 90 | 100 | 100 | 90 | Morningglory plant response rating (morningglory [4]): 100; Pigweed plant response rating (pigweed [5]): 100; Velvetleaf plant response rating (velvetleaf [6]): 100; Wheat plant response rating (wheat [7]): 70; Barnyardgrass plant response rating (barnyardgrass [9]; [19]): 70; Crabgrass, Large plant response rating (crabgrass, large [10]; [19]): 80; Foxtail, Giant plant response rating (foxtail, giant [11]; [19]): 80; Velvetleaf plant response rating (velvetleaf [14]; [21]): 100; Wheat plant response rating (wheat [15]; [20]): 80; Wheat plant response rating (wheat [15]; [21]): 60; Corn plant response rating (corn [16]; [18]): 100; Corn plant response rating (corn [16]; [19]): 60; Plant response rating, Rice (rice): 0; Plant response rating, Sedge, Umbrella (sedge, umbrella): 55; Plant response rating, Ducksalad (ducksalad): 80; Plant response rating, Barnyardgrass (barnyardgrass [17]): 0
CCc1cc(C(=O)NN(C)C)nn1Cc1ccnc(C(F)(F)F)c1 [Compound 192] | 0 | 0 | 0 | 10 | 0 | 0 | 0 | 0 | 0 | 0 | 0 | 0 | 30 | 20 | 30 | 30 | 90 | 80 | 90 | 50 | Morningglory plant response rating (morningglory [4]): 10; Pigweed plant response rating (pigweed [5]): 0; Velvetleaf plant response rating (velvetleaf [6]): 0; Wheat plant response rating (wheat [7]): 0; Barnyardgrass plant response rating (barnyardgrass [9]; [19]): 10; Crabgrass, Large plant response rating (crabgrass, large [10]; [19]): 10; Foxtail, Giant plant response rating (foxtail, giant [11]; [19]): 10; Velvetleaf plant response rating (velvetleaf [14]; [21]): 80; Wheat plant response rating (wheat [15]; [20]): 0; Wheat plant response rating (wheat [15]; [21]): 10; Corn plant response rating (corn [16]; [18]): 50; Corn plant response rating (corn [16]; [19]): 20; Plant response rating, Rice (rice): 0; Plant response rating, Sedge, Umbrella (sedge, umbrella): 0; Plant response rating, Ducksalad (ducksalad): 0; Plant response rating, Barnyardgrass (barnyardgrass [17]): 0
CCc1cc(C(=O)NC2CC2)nn1Oc1cccc(C(F)(F)F)c1 [Compound 215] | 0 | 60 | 50 | 100 | 10 | 70 | 0 | 10 | 0 | 0 | 0 | 0 | 40 | 60 | 70 | 30 | 100 | 40 | 90 | 10 | Barnyardgrass plant response rating (barnyardgrass [9]; [22]): 10; Crabgrass, Large plant response rating (crabgrass, large [10]; [22]): 10; Foxtail, Giant plant response rating (foxtail, giant [11]; [22]): 10; Velvetleaf plant response rating (velvetleaf [14]; [21]): 60; Wheat plant response rating (wheat [15]; [20]): 0; Wheat plant response rating (wheat [15]; [21]): 10; Corn plant response rating (corn [16]; [22]): 10; Corn plant response rating (corn [16]; [18]): 20; Plant response rating, Rice (rice): 10; Plant response rating, Sedge, Umbrella (sedge, umbrella): 20; Plant response rating, Ducksalad (ducksalad): 30; Plant response rating, Barnyardgrass (barnyardgrass [17]): 0

From patent US20150105252A1, “SUBSTITUTED PYRAZOLES AS HERBICIDES” (E I DU PONT DE NEMOURS AND COMPANY, priority 2013, published 2015)
